In patent US12358879B2, “Heterocyclic compound” (Takeda Pharmaceutical Company Limited, priority 2019, dated 2025):

Tested on: Skin fibroblasts derived from FA patients (GM4078)
Assay: RSL3-induced cell death inhibitory activity in skin fibroblasts derived from FA patients (ATP, CellTiter-Glo)
Format: cell-based, human
Conditions: 3 μmol/l RSL3, 24 hours
Description: The effects of the compounds according to the present disclosure were evaluated according to the literature (M. G. Cotticelli et al, J Pharmacol Exp Ther 2019, 369, 47-54.).
Skin fibroblasts derived from FA patients (Coriell Institute for Medical Research, GM4078) were cultured in a culture medium consisting of DMEM (Thermo Fisher Scientific, 11995-065), 10% fetal bovine serum (Thermo Fisher Scientific, 26140-087), 1% GlutaMAX supplement (Thermo Fisher Scientific, 35050-061) and 1% Penicillin-Streptomycin solution (FUJIFILM Wako Pure Chemical Corporation, 168-23191).
For assay, the fibroblasts in the above culture medium were seeded in a 384-well plate at 1,500 cells per well, and the test compound and 3 μmol/l (final concentration) RSL3 were added to the plate the day after seeding. The concentration of the test compound added to the assay plate was 0.01, 0.1, 1 and 10 μmol/l as 4 points, and DMSO was added as a negative control for the test compound and RSL3. Twenty-four hours after the addition of RSL3/the test compound, CellTiter-Glo Luminescent Cell Viability Assay solution (Promega, G7573) was added to the plate to lyse the cells, and ATP was measured as an index of cell viability by detecting chemiluminescence with a plate reader.
RSL3-induced cell death inhibitory activity of the test compound=((X−C)/(T−C))×100 • X: ATP in the RSL3 addition/the test compound addition group, • C: ATP in the RSL3 addition/the test compound non-addition group, • T: ATP in the RSL3 non-addition/the test compound non-addition group

Row | Structure (SMILES) | RSL3-induced cell death inhibitory activity (%) at each compound concentration (μmol/l) (compound 0.01 μmol/l) | RSL3-induced cell death inhibitory activity (%) at each compound concentration (μmol/l) (compound 0.1 μmol/l) | RSL3-induced cell death inhibitory activity (%) at each compound concentration (μmol/l) (compound 1 μmol/l) | RSL3-induced cell death inhibitory activity (%) at each compound concentration (μmol/l) (compound 10 μmol/l)
1 | COCc1nn(C)cc1Nc1nn(C(C)C)c2cc(C(C)(C)O)ccc12 [Example 85, 2-[3-{[3-(methoxymethyl)-1-methyl-1H-pyrazol-4-yl]amino}-1-(propan-2-yl)-1H-indazol-6-yl]propan-2-ol] | 11.4% | 43.2% | 68.4% | 72.6%
2 | COCc1nn(C)cc1Nc1nn(C2CCC2)c2ccc(C(C)(C)O)cc12 [Example 88, 2-(1-cyclobutyl-3-{[3-(methoxymethyl)-1-methyl-1H-pyrazol-4-yl]amino}-1H-indazol-5-yl)propan-2-ol] | 13.6% | 61.2% | 73.0% | 72.7%
